Measurements taken from patent US6489364B2, “Antiviral protease inhibitors” (priority 1997, dated 2002).
≈ marks a conversion by molar mass, not a printed value.

Legend:
HIV-1 = HIV-1 infected MT4 cell culture, XTT assay; format: cell-based; conditions: Human immunodeficiency virus 1, 144 h; second part of Table 1, head EC50; MT4 cells, HIV-1, 6 days, XTT; read-out: EC50
Description: Compounds are also tested for HIV protease activity in cell culture. MT4 cells grown in RPMI 1640 cell culture medium including 10% fetal calf serum are infected with 10 TCID HIV-1 per 2×10^5 cells and cultured for 6 days. XTT is added and the amount of XTT formazan produced in the following 6 hours represents the number of surviving cells. Results are expressed as the ED50, that is the concentration in μg/ml of the compound of the invention which suppresses viral replication by 50%.

purified HIV proteinase = target: T1, purified HIV proteinase (Human immunodeficiency virus type 1 group M subtype B, UniProt P04585); assay: biochemical; conditions: values in parentheses; affinity constant; read-out: (Ki μM)
T1 construct: purified HIV proteinase
Description: Representative compounds were tested for HIV protease activity in a spectrophotometric enzyme assay using the chromogenic substrate His-Lys-Ala-Arg-Val-Leu-p-nitro-Phe-Glu-Ala-Nle-Ser-amide and purified HIV proteinase. The rate of cleavage is followed by continuously registering the change in absorbance at 300 nm. […]

SMILES | EC50 (HIV-1) [µg/mL] | Ki (purified HIV proteinase) [µM]
CNC(=O)C(NC(=O)C(OCc1ccccc1)C(O)C(O)C(OCc1ccccc1)C(=O)NC1c2ccccc2CC1O)C(C)C [Example 11, N1-[(1S,2R)-2-hydroxy-2,3-dihydro-1H-1-indenyl]-N6-[(1S)-2-methyl-1-(methylcarbamoyl)propyl]-(2R,3R,4R,5R,)-2,5-di(benzyloxy)-3,4-dihydroxyhexanediamide] | 0.2 (≈ 0.316 µM) | 0.0012
CNC(=O)C(NC(=O)C(OCc1ccc(F)cc1F)C(O)C(O)C(OCc1ccc(F)cc1F)C(=O)NC(C(=O)NC)C(C)C)C(C)C [Example 20, N1,N6-di[(1S)-2-methyl-1-(methylcarbamoyl)propyl]-(2R,3R,4R,5R)-2,5-di[4-(2,4-difluorobenzyl)oxy]-3,4-dihydroxyhexanediamide] | 0.9 (≈ 1.31 µM) | 0.0001
